Laboratory results as given in patent publication US20260315564A1, “THE USE OF TP3 (THYMOPENTIN ANALOG) BY INCREASING THE ACTIVITY AND NUMBER OF T-CELLS INVOLVED IN THE DEFENSE MECHANISM OF THE IMMUNE SYSTEM OF MAMMALS, FOR THE PREVENTION OR TREATMENT OF DISEASES TO EXTEND THE AVERAGE LIFESPAN” (priority 2023, published 2026).
Marks after values point to notes of the source that are not given here. Residues, ends and D or L forms follow the SMILES beside them.

How the values were obtained:
[1] = tested on: Antibody production (immunized with BVVT); assay: Antibody production (anti-BVVT titer) in Balb/c nu/nu mice; type: in vivo; conditions: ip, n = 10/group, control < 3.0
Description: Rats (Hannover Wistar) were treated (i.p.) within 6-12 hours after birth. Treatments after birth in a single session or in another examination • on the 7th day after the first treatment; • another group was vaccinated 3 times a week after the first day of treatment. • in a subsequent group, the treatments took place over three weeks (9× in total) (10-3,10-5,10-7//10-9, 10-11,10-12,10-13 M/animal, i.p.). • in the fourth test series, the animals were treated with TP fragments at 0, 1, 2, 4, or 5 days of age. The rats were randomly immunized on the 14th day after birth (1% BVVT with 0.5 ml cell suspension, i.p.). Immune responses were measured after 7 days on day 21 of the experiment. 1.2. Determination of anti-BVVT Ab titers (from rat blood samples ex vivo) • with the haemagglutination method (Takátsy and Fürész, 1955) on 96-well plates (Flow). 50 ul of 0.9% NaCl solution was added to each well. The sera (50 μl) were diluted by half dilution in 12 steps, mixed with 25 pμl 2% BVVT cell suspension, and incubated (1 hour at 37 °C). The hemagglutination titers of the sera are determined. Values expressed in logarithmic values refer to total agglutination.
Mice were treated for 4 weeks 3 times a week (every other day) with TP fragments (10-9, 10-8, 10-7//10-3, 10-2, 10-1 M/animal ip. (Veys et al., 1983) at the end of the treatments ([…]), the mice were immunized (with 0.5 ml 1% BVVT suspension ip. The immune response was expressed in antibody titers as above).

[2] = tested on: antibody production (IgM); assay: Antibody production (IgM) in aged mice; type: in vivo, aged mice (Balb/c); conditions: second value column under head 'PFC IgM/logx^2'; aged mice 18 months old; n = 8/group; young control 84.1, aged 41.0
[3] = High-dose / long-term tolerability in animals; type: in vivo; conditions: 12 months of use, in words
[4] = 12-24 months, Friedmann 1985, in words; cited from earlier work
[5] = tested on: Thy 1+, Lyt 1+, Lyt 2+ spleen cells; assay: Spleen cell subpopulations (Thy 1, Lyt 1, Lyt 2) in adult thymus-removed (Tx) mice; type: in vivo, C57BL mice (adult thymectomized); conditions: male, 1.0 mg/kg/ip, n = 8/group
Description: • D.1/Direct cytotoxicity test/for the detection of Thy, Lyt antigens (Fathman 1979, in Immunol Meth I. Eds. Lefkovits, Pernis, Acad Press, New York, pp. 212-213.) was used. Subpopulation ratios were determined from bone marrow cells, thymus, and spleen cells isolated from the lymphatic organs of mice. The cell suspensions (1.087-1.088 g/cm3) were centrifuged ona density gradient (2000 rpm, 20 minutes), and the cells were washed 3× with RPMI1640 medium containing 0.3% BSA, then adjusted to 107/ml. Thyl, Lyt 1, Lyt2 monoclonal antibodies (McAb/Ando I. (ICRF Human Tumor Immunol. UCM Med Sch. London) were obtained. 25 μl McAb and 25 ul cell suspension were incubated (60′, 40C1), after centrifugation (1250 rpm 10′), the cells were resuspended with 40 μul of diluted (1:50) rabbit complement, then incubated (370C, 60′). The cell suspensions were stained with 1:5 dilution of Eosin Y (Jansen). the ratio of live to non-living cells was determined.
(§1) After thymectomy, mice were treated with doses of 1 mg/kg, i.p. once a week for six weeks. Thy 1+, Lyt1+, and Lyt2+ in the spleen cells of mice at the age of 13 weeks cell proportions were determined based on what was previously described.

[6] = tested on: transplanted skin graft rejection; assay: Rejection of the transplanted skin graft in adult thymus-removed (Tx) mice; type: in vivo, C57BL mice (adult thymectomized); conditions: for rejection of the transplanted skin graft: n = 8/group
Description: 1.3./Determination of the number of plaque-forming cells (PFC) (using rat spleen cells) The chopped splenocytes were placed in a culture medium (Parker 199) and then shaken with a shaker for 1 minute. The cells were suctioned from the surface of the rapidly settling tissue debris. Red blood cells were removed osmotically. Cell suspensions were adjusted to 107/ml. The cell suspensions were mixed with a 15% BVVT cell suspension in a ratio of 2:1. PFC was determined with the mixture using a modified chamber technique according to Channingham et al., 1966). Before filling the chamber, 50 μl of fresh diluted guinea pig serum (1:20) was added. The chambers (2-2/slide) were incubated (370C 45′) after sealing with paraffin, the formed plaques were counted under a microscope (at 400× magnification) within 2 hours Marker tests related to the rejection reaction of an adult thymus-depleted mouse skin graft 1.4./Rejection of skin transplants in nude mice after treatment with TP fragments (Snell et al., Transplantation 5, 492, 1967).
as §1
5. The Effect of TP3 was Tested on the Activity of the Immune System by Rejection of Skin Graft
• in adult thymectomized (Tx) C57BL mice.

SMILES: CC(C)[C@H](NC(=O)[C@H](CC(=O)O)NC(=O)[C@H](CCCCN)NC(=O)[C@@H](N)CCCN=C(N)N)C(=O)N[C@@H](Cc1ccc(O)cc1)C(=O)O [TP5] (H-RKDVY-OH)
- antibody production (titer) ([1]; 10^-2 M/mouse (M/eger)): 26.4 **
- antibody production (titer) ([1]; 10^-3 M/mouse (M/eger)): 19.8
- antibody production (titer) ([1]; 10^-4 M/mouse (M/eger)): 11.9
- antibody production (titer) ([1]; 10^-7 M/mouse (M/eger)): 24.6 **
- antibody production (titer) ([1]; 10^-8 M/mouse (M/eger)): 19.9 *
- antibody production (titer) ([1]; 10^-9 M/mouse (M/eger)): 14.5
- IgM/logx^2 [2]: 44.7 logx^2
- side effects [3]: did not cause any signs of side effects
- safety in patients [4]: well-used, safe drug candidate
- Lyt1/Lyt2 ([5]; control 1.77, Tx 1.96): 1.63
- Lyt 2 spleen cells ([5]; control 13.7, Tx 9.6): 14.2* %
- Lyt 1 spleen cells ([5]; control 24.3, Tx 18.8): 23.2* %
- Thy 1 spleen cells ([5]; control 30.1, Tx 8.1): 21.2%
- rejection of the transplanted skin graft ([6]; female Tx C57BL mice, untreated control 14.5, Tx 54.6): 23.1**
- rejection of the transplanted skin graft ([6]; male Tx C57BL mice, untreated control 27.8, Tx 59.8): 41.3
- recovery of T cells / shortening of skin graft survival time ([6]; male mice, rank in words): TP5>TP3
